The values that follow come from patent US9493479B2 (Merck Sharp & Dohme Corp., priority 2013, dated 2016).

For experiment [1], the target named is T1, WT-Integrase (Human immunodeficiency virus type 1 group M subtype B, UniProt P04585).
T1 construct: assembled PVT SPA beads with WT-Integrase and boitinylated DNA
The experiment is described as follows: InSTANT integrase DNA strand transfer functional assay. Particulars: SPA strand transfer, 15 minutes at 37° C. In kind it is biochemical, HIV. The method, then:
InSTANT is an integrase DNA strand transfer functional assay used to determine potency of InSTIs, which was carried out as described below. 8 μl of SPA buffer (27.8 mM Hepes, 27.8 mM MgCl2, 111.1 μg/mL BSA, 5.56 mM βME, and 57.1 mM NaCl) containing 5 nM 3H-labeled target DNA (prepared separately) and 10 μl of assembled PVT SPA beads with WT-Integrase and boitinylated DNA (prepared separately) were added to the assay plate which contained 0.4 μl of test compound(s) or positive or negative control compound(s) per well. The assay plate was shaken for 1 minute on HT-91002 1.0 MM shaker and then was sealed and incubated for 15 minutes at 37° C. The assay reaction was quenched by adding 4 μl of 1.25 M EDTA to each well of the assay plate with mixing. After incubating the plate at room temperature for 1 hour, the quenched plate was spun at 200 g for 1 minute and read on TopCount (1 minute per well). Percent inhibition was calculated by [1−(Sample−Min)/(Max−Min)]*100. Compound potency IP or IC50 was determined by a 4-parameter dose response curve analysis.

The test system of experiment [2] is HIV-1 (NL4-3 strain). Put plainly: ViKinG (Viral Kinetics GFP Reporter) assay for inhibition of HIV replication. In kind it is cell-based. Particulars: MT4-GFP cells infected with HIV-1 NL4-3, RPMI + 10% or 50% NHS (not given), infected cells at 48 h / 24 h. An excerpt:
The ViKinG (Viral Kinetics GFP Reporter) assay is an in vitro kinetic assay that employs the MT4-gag-GFP reporter cell line (Wang et al., “Assessment of the susceptibility of mutant HIV-1 to antiviral agents.” J Virological Methods 165:230-37 (2010)) to quantify the number of new cells infected in each round of replication. The purpose of the ViKinG assay is to identify agents that inhibit HIV progression. Briefly, HIV infection results in tat transactivation of the stably expressed HIV LTR promoter to drive gagGFP expression. Thus, an increase in the number of GFP-MT4 cells results following HIV infection.
MT4-GFP cells (250,000 cells/m1) were bulk-infected with HIV-1 (NL4-3 strain) at low multiplicity of infection (MOT) in RPMI+10% FBS for 24 hours. Cells were then washed once in RPMI+10% FBS and resuspended RPMI+10% or 50% normal human serum (NHS). Test compounds were serial-diluted in DMSO on an ECHO® liquid handling platform (Labcyte Corp., Sunnyvale, Calif.), along with a triple drug control (integrase, protease and NNRTI compounds). The infected MT4-GFP cells were added to a 384-well poly-D-lysine coated black plate with clear bottom in which the diluted test compounds were placed. The cells were seeded at 8,000 cells per well and the final DMSO concentration was 0.4%. The infected cells (Green GFP cells) were quantified at both 24 and 48 hours post incubation using Acumen® eX3 (TTP Labtech Ltd., Hertfordshire, United Kingdom). Viral reproductive ratio (R0) was determined using the number of infected cells at 48 hours divided by the number of infected cells at 24 hours. Percent viral growth inhibition was calculated by [1−(R−Rtripledrug)/(RDMSO−Rtripledrug)]*100. Compound potency IP or IC50 was determined by a 4-parameter dose response curve analysis.

Setting [3] is: Human immunodeficiency virus 1, NL43.

Structures can show the parent of a compound that is named as a salt.

Consider `O=C1c2c(O)c(=O)c3c(n2CCN1Cc1ccc(F)c(Cl)c1)COCCC3` [Compound 1, 9-(3-chloro-4-fluorobenzyl)-7-hydroxy-4,5,10,11-tetrahydro-1H-oxepino[4′,3′:5,6]pyrido[1,2-a]pyrazine-6,8(3H,9H)-dione], for which the results for the IC50 in experiment [1] and in experiment [2] (setting [3]) were 58 nM and 347 nM, respectively. As for `CN1C/C=C\Cc2c(n3c(c(O)c2=O)C(=O)N(Cc2ccc(F)c(Cl)c2)CC3)C1=O` [Compound 23, (Z)-10-(3-chloro-4-fluorobenzyl)-8-hydroxy-2-methyl-2,3,11,12-tetrahydro-1H-pyrazino[1′,2′:1,6]pyrido[2,3-c]azocine-1,7,9(6H,10H)-trione], in experiment [2] (setting [3]), the concentration for half-maximal inhibition (IC50) worked out at 273 nM.

In the case of `CC(C)c1c(C(=O)N(C)C)n2c(c(O)c1=O)C(=O)N(Cc1ccc(F)cc1)CC2` [Compound 20, 2-(4-fluorobenzyl)-9-hydroxy-7-isopropyl-N,N-dimethyl-1,8-dioxo-2,3,4,8-tetrahydro-1H-pyrido[1,2-a]pyrazine-6-carboxamide], the results for the 50% inhibitory concentration (IC50) in experiment [1] and in experiment [2] (setting [3]) were 20 nM and 286 nM, respectively. With `CCC1COCc2c1c(=O)c(O)c1n2CCN(Cc2ccc(F)c(Cl)c2)C1=O` (stereo not shown) [Compound 7], the IC50 was 13 nM in experiment [1] and 461 nM in experiment [2] (setting [3]). Regarding `CC(C)c1c(CNC(=O)OC(C)(C)C)n2c(c(O)c1=O)C(=O)N(Cc1ccc(F)c(Cl)c1)CC2` [Compound 31, tert-butyl((2-(3-chloro-4-fluorobenzyl)-9-hydroxy-7-isopropyl-1,8-dioxo-2,3,4,8-tetrahydro-1H-pyrido[1,2-a]pyrazin-6-yl)methyl)carbamate], the results for the IC50 in experiment [1] and in experiment [2] (setting [3]) were 42 nM and 2610 nM, respectively. Turning to `O=C1c2c(O)c(=O)c3c(n2CCN1Cc1ccc(F)c(Cl)c1)COCC1CC31` (stereo not shown) [Compound 3, 2-(3-chloro-4-fluorobenzyl)-11-hydroxy-3,4,8,8a,9,9a-hexahydrocyclopropa[5′,6]oxepino[4′,3′:5,6]pyrido[1,2-a]pyrazine-1,10(2H,6H)-dione], in experiment [2] (setting [3]), the concentration for half-maximal inhibition (IC50) stood at 241 nM. With `C=C1CN(C)C(=O)c2c1c(=O)c(O)c1n2CCN(Cc2ccc(F)c(Cl)c2)C1=O` [Compound 21, 8-(3-chloro-4-fluorobenzyl)-6-hydroxy-2-methyl-4-methylene-3,4,9,10-tetrahydro-1H-pyrazino[1,2-a][1,7]naphthyridine-1,5,7(2H,8H)-trione], the IC50 in experiment [1] amounted to 2 nM; in experiment [2] (setting [3]), 155 nM. For the molecule `C/C=C1\COCc2c1c(=O)c(O)c1n2CCN(Cc2ccc(F)c(Cl)c2)C1=O` [Compound 5, (Z)-8-(3-chloro-4-fluorobenzyl)-4-ethylidene-6-hydroxy-3,4,9,10-tetrahydropyrano[4′,3′:5,6]pyrido[1,2-a]pyrazine-5,7(1H,8H)-dione], the IC50 in experiment [2] (setting [3]) came out at 183 nM. Same read-out and setting: the figure for `CC(C)c1c(CNC(=O)c2ccon2)n2c(c(O)c1=O)C(=O)N(Cc1ccc(F)c(Cl)c1)CC2` [Compound 10, N-((2-(3-chloro-4-fluorobenzyl)-9-hydroxy-7-isopropyl-1,8-dioxo-2,3,4,8-tetrahydro-1H-pyrido[1,2-a]pyrazin-6-yl)methyl)isoxazole-3-carboxamide] is 406 nM. Turning to `O=C1c2c(O)c(=O)c3c(n2CCN1Cc1ccc(F)cc1)COCCCC3` [Compound 9, 10-(4-fluorobenzyl)-8-hydroxy-3,4,5,6,11,12-hexahydrooxocino[4,3′:5,6]pyrido[1,2-a]pyrazine-7, 9(1H, 1 OH)-dione], the IC50 in experiment [2] is 961 nM. `C=C1CCOCc2c1c(=O)c(O)c1n2CCN(Cc2ccc(F)c(Cl)c2)C1=O` [Compound 28]: in experiment [2] (setting [3]), the IC50 came to 503 nM. On the same count and under the same terms, the figure for `C=C1COCc2c1c(=O)c(O)c1n2CCN(Cc2ccc(F)c(Cl)c2)C1=O` [Compound 11, 8-(3-chloro-4-fluorobenzyl)-6-hydroxy-4-methylene-3,4,9,10-tetrahydropyrano[4′,3′:5,6]pyrido[1,2-a]pyrazine-5,7(1H,8H)-dione] is 298 nM; for `CC1CCNCc2c1c(=O)c(O)c1n2CCN(Cc2ccc(F)c(Cl)c2)C1=O` (stereo not shown) [Compound 16, 9-(3-chloro-4-fluorobenzyl)-7-hydroxy-5-methyl-2,3,4,5,10,11-hexahydropyrazino[1′,2′:1,6]pyrido[2,3-c]azepine-6,8(1H,9H)-dione trifluoroacetate salt] it is 487 nM. With `CC1CC12COCc1c2c(=O)c(O)c2n1CCN(Cc1ccc(F)c(Cl)c1)C2=O` (stereo not shown) [Compound 8, 8′-(3-chloro-4-fluorobenzyl)-6′-hydroxy-2-methyl-9′,10′-dihydro-1′H-spiro[cyclopropane-1,4′-pyrano[4′,3′:5,6]pyrido[1,2-a]pyrazine]-5′,7′(3′H,8′H)-dione], the IC50 was 28 nM in experiment [1] and 507 nM in experiment [2] (setting [3]).

On to `O=C1c2c(O)c(=O)c3c(n2CCN1Cc1ccc(F)c(Cl)c1)COC31C=CCC1` (stereo not shown) [Compound 12, 7′-(3-chloro-4-fluorobenzyl)-5′-hydroxy-8′,9′-dihydrospiro[cyclopent[2]ene-1,3′-furo[3′,4′:5,6]pyrido[1,2-a]pyrazine]-4′,6′(1′H,7′H)-dione], for which the IC50 in experiment [2] was 1020 nM.

For `CC(C)c1c(CN)n2c(c(O)c1=O)C(=O)N(Cc1ccc(F)c(Cl)c1)CC2` [Compound 32, 6-(aminomethyl)-2-(3-chloro-4-fluorobenzyl)-9-hydroxy-7-isopropyl-3,4-dihydro-1H-pyrido[1,2-a]pyrazine-1,8(2H)-dione trifluoroacetate salt], the results for the half-inhibitory concentration (IC50) in experiment [1] and in experiment [2] (setting [3]) were 14 nM and 151 nM, respectively. As for `CCc1cn(C)c(=O)c2c1c(=O)c(O)c1n2CCN(Cc2ccc(F)c(Cl)c2)C1=O` [Compound 24, 8-(3-chloro-4-fluorobenzyl)-4-ethyl-6-hydroxy-2-methyl-9,10-dihydro-1H-pyrazino[1,2-a][1,7]naphthyridine-1,5,7(2H,8H)-trione], in experiment [2] (setting [3]), the concentration for half-maximal inhibition (IC50) amounted to 1120 nM. Consider `O=C1c2c(O)c(=O)c3c(n2CCN1Cc1ccc(F)c(Cl)c1)COC31CCC2CC21` (stereo not shown) [Compound 13], for which the IC50 in experiment [1] worked out at 8 nM; in experiment [2] (setting [3]) it was 333 nM. Consider `CC1CCN(C(=O)CN(C)C)Cc2c1c(=O)c(O)c1n2CCN(Cc2ccc(F)c(Cl)c2)C1=O` (stereo not shown) [Compound 30], for which the IC50 in experiment [2] (setting [3]) was determined as 3250 nM.

Regarding `C=C1CCN(C(=O)CN(C)C)Cc2c1c(=O)c(O)c1n2CCN(Cc2ccc(F)c(Cl)c2)C1=O` [Compound 29], the IC50 in experiment [2] (setting [3]) was greater than 4200 nM. Regarding `CC(C)c1c(C(=O)N(C)C)n2c(c(O)c1=O)C(=O)N(Cc1ccc(F)c(Cl)c1)CC2` [Compound 19, 2-(3-chloro-4-fluorobenzyl)-9-hydroxy-7-isopropyl-N,N-dimethyl-1,8-dioxo-2,3,4,8-tetrahydro-1H-pyrido[1,2-a]pyrazine-6-carboxamide], the results for the concentration for half-maximal inhibition (IC50) in experiment [1] and in experiment [2] (setting [3]) were 10 nM and 82 nM, respectively. With `O=C1c2c(O)c(=O)c3c(n2CCN1Cc1ccc(F)c(Cl)c1)COC31C=CCCC1` (stereo not shown) [Compound 15, 7′-(3-chloro-4-fluorobenzyl)-5′-hydroxy-8′,9′-dihydrospiro[cyclohex[2]ene-1,3′-furo[3′,4′:5,6]pyrido[1,2-a]pyrazine]-4′,6′(1′H,7′H)-dione], the IC50 in experiment [2] (setting [3]) turned out to be 401 nM. Turning to `C=C(C)C1COCc2c1c(=O)c(O)c1n2CCN(Cc2ccc(F)c(Cl)c2)C1=O` (stereo not shown) [Compound 26], the concentration for half-maximal inhibition (IC50) in experiment [2] (setting [3]) came out at 272 nM. On to `C=C1CCN(C(=O)C(=O)N(C)C)Cc2c1c(=O)c(O)c1n2CCN(Cc2ccc(F)c(Cl)c2)C1=O` [Compound 17, 2-(9-(3-chloro-4-fluorobenzyl)-7-hydroxy-5-methylene-6,8-dioxo-4,5,8,9,10,11-hexahydropyrazino[1′,2′:1,6]pyrido[2,3-c]azepin-2(1H,3H,6H)-yl)-N,N-dimethyl-2-oxoacetamide], for which the IC50 in experiment [2] (setting [3]) was greater than 4200 nM. Take `CC(C)C1COCc2c1c(=O)c(O)c1n2CCN(Cc2ccc(F)cc2)C1=O` (stereo not shown) [Compound 27]: in experiment [2] (setting [3]), the 50% inhibitory concentration (IC50) is 672 nM.
